Key:
[1] = target: T1, Beta-3 adrenergic receptor (Homo sapiens, UniProt P13945); test: Agonistic activity against human Beta-3 adrenergic receptor by measuring cAMP accumulation in CHO cells expressing beta3-AR with respect to isoproterenol at a concentration of 10e-7 M; assay type: functional, cell-based
Target sequence in this assay (P13945 whole entry, looked up): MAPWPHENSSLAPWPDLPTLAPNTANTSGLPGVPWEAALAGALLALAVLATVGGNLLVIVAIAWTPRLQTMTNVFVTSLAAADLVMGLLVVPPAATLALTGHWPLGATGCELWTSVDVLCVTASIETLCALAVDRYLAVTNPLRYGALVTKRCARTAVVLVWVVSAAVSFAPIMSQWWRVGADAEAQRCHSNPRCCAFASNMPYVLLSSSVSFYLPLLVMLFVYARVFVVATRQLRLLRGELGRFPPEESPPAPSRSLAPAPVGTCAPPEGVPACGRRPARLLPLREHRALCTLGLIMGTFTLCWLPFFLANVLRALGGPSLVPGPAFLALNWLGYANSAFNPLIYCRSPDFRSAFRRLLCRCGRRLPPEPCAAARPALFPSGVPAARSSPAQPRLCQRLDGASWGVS

[2] = target: T1, Beta-3 adrenergic receptor; test: (§1) Agonistic activity against human Beta-3 adrenergic receptor by measuring cAMP accumulation in CHO cells expressing Beta-3 adrenergic receptor; assay type: functional, cell-based
Target sequence in this assay (P13945 whole entry): as the sequence (P13945 whole entry, looked up) above

[3] = target: T1, Beta-3 adrenergic receptor; test: Agonistic activity to recombinant human beta-3 adrenergic receptor expressed in CHO cells by measuring cAMP accumulation; assay type: functional, cell-based
Target sequence in this assay (P13945 whole entry, looked up): as above

[4] = target: Beta-1 adrenergic receptor (Homo sapiens, UniProt P08588); test: Agonistic activity against human Beta-1 adrenergic receptor by measuring cAMP accumulation in CHO cells expressing beta3-AR; assay type: functional, cell-based
Beta-1 adrenergic receptor, sequence (P08588 whole entry): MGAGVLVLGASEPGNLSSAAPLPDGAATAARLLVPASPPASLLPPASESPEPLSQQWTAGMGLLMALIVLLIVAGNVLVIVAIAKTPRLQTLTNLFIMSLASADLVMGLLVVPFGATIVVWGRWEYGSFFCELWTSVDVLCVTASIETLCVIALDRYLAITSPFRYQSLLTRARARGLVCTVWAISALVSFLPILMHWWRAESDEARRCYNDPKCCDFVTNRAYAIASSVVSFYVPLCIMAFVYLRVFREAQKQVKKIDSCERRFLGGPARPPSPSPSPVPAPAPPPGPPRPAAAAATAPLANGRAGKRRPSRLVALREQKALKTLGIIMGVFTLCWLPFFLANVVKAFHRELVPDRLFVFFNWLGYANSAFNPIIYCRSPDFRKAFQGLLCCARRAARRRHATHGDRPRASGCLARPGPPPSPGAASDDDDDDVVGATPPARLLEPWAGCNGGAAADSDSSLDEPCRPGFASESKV

[5] = target: T1, Beta-3 adrenergic receptor; test: Agonism of recombinant human beta-3 adrenergic receptor assayed by measuring cAMP accumulation in CHO cells expressing beta3-AR; assay type: functional, cell-based
Target sequence in this assay (P13945 whole entry): as the sequence (P13945 whole entry, looked up) above

[6] = target: Beta-3 adrenergic receptor (Rattus norvegicus) (UniProt P26255); test: Agonistic activity against rat Beta-3 adrenergic receptor as cAMP accumulation in CHO cells expressing beta3-AR
[7] = target: Beta-3 adrenergic receptor (Rattus norvegicus) (UniProt P26255); test: as above; remark: listed apart in the source
[8] = target: T2, Beta-2 adrenergic receptor (Homo sapiens, UniProt P07550); test: (§2) Agonistic activity against human Beta-2 adrenergic receptor by measuring cAMP accumulation in CHO cells expressing beta3-AR; assay type: functional, cell-based
Target sequence in this assay (P07550 whole entry, looked up): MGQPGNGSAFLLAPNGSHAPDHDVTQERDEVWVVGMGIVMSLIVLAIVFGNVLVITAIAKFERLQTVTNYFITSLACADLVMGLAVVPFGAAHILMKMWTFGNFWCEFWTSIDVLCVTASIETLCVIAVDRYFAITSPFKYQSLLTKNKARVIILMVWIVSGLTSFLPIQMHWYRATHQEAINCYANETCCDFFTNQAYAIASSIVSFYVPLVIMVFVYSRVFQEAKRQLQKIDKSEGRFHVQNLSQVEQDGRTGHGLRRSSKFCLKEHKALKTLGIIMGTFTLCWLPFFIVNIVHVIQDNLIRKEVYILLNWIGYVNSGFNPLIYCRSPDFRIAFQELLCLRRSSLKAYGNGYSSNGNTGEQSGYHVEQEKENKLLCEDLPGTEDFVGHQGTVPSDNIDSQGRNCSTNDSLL

[9] = target: T2, Beta-2 adrenergic receptor; test: as §2; assay type: functional, cell-based; remark: listed apart in the source
Target sequence in this assay (P07550 whole entry): as the sequence (P07550 whole entry, looked up) above

[10] = target: T1, Beta-3 adrenergic receptor; test: Agonistic activity against human beta-3-adrenergic receptor by measuring cAMP accumulation in CHO cells expressing Beta-3 adrenergic receptor; assay type: functional, cell-based
Target sequence in this assay (P13945 whole entry, looked up): as the sequence (P13945 whole entry, looked up) above

[11] = target: T1, Beta-3 adrenergic receptor; test: Agonistic activity against human Beta-3 adrenergic receptor by measuring cAMP accumulation in CHO cells expressing Beta-3 adrenergic receptor with respect to isoproterenol at a concentration of 10e-7 M; assay type: functional, cell-based
Target sequence in this assay (P13945 whole entry, looked up): as above

[12] = target: T1, Beta-3 adrenergic receptor; test: as §1; assay type: functional, cell-based; remark: listed apart in the source
Target sequence in this assay (P13945 whole entry, looked up): as above

[13] = target: T1, Beta-3 adrenergic receptor; test: Agonistic activity against human Beta-3 adrenergic receptor by measuring cAMP accumulation in CHO cells; assay type: functional, cell-based
Target sequence in this assay (P13945 whole entry, looked up): as above

Structure (SMILES): Cc1cccc2c(CCNCC(O)c3cccc(Cl)c3)c[nH]c12 (centres undefined)
- cAMP accumulation [1]: 0%

Structure (SMILES): CC(Cc1c[nH]c2ccccc12)NCC(O)c1cccc(Cl)c1 (centres undefined) [listing 1 of 2 here]
- EC50 [2]: 12 nM

Structure (SMILES): C[C@@H](Cc1c[nH]c2ccccc12)NC[C@H](O)c1cccc(Cl)c1
- Intrinsic activity [3]: 97%
- EC50 [4]: 9.4 nM
- EC50 [5]: 240 nM
- EC50 [6]: 13 nM
- Intrinsic activity [7]: 96%

Structure (SMILES): CC(Cc1c[nH]c2c(OCC(=O)O)cccc12)NC[C@H](O)c1cccc(Cl)c1 (some centres undefined)
- Intrinsic activity [3]: 124%
- EC50 [5]: 0.11 nM

Structure (SMILES): COc1cccc2c(CC(C)NC[C@H](O)c3cccc(Cl)c3)c[nH]c12 (some centres undefined)
- Intrinsic activity [3]: 114%

Structure (SMILES): COc1ccc2c(CC(C)NCC(O)c3cccc(Cl)c3)c[nH]c2c1 (centres undefined)
- Intrinsic activity [3]: 102%

Structure (SMILES): C[C@H](Cc1c[nH]c2ccccc12)NC[C@@H](O)c1cccc(Cl)c1
- Intrinsic activity [8]: 23%
- Intrinsic activity [3]: 119%
- EC50 [4]: 47 nM
- EC50 [5]: 220 nM
- EC50 [9]: 330 nM
- EC50 [6]: 11 nM
- Intrinsic activity [7]: 108%

Structure (SMILES): C[C@H](Cc1c[nH]c2ccccc12)NC[C@H](O)c1cccc(Cl)c1
- Intrinsic activity [8]: 50%
- Intrinsic activity [3]: 110%
- EC50 [4]: 1.9 nM
- EC50 [5]: 5.4 nM
- EC50 [9]: 25 nM
- EC50 [6]: 0.36 nM
- Intrinsic activity [7]: 98%

Structure (SMILES): Cc1cccc2[nH]cc(CC(C)NCC(O)c3cccc(Cl)c3)c12 (centres undefined)
- Intrinsic activity [3]: 165%
- EC50 [5]: 96 nM

Structure (SMILES): CC(C)(Cc1c[nH]c2ccccc12)NCC(O)c1cccc(Cl)c1 (centres undefined)
- Intrinsic activity [10]: 118%
- EC50 [2]: 70 nM

Structure (SMILES): Cn1cc(CCNCC(O)c2cccc(Cl)c2)c2ccccc21 (centres undefined)
- cAMP accumulation [1]: 6%

Structure (SMILES): CCC(Cc1c[nH]c2ccccc12)NCC(O)c1cccc(Cl)c1 (centres undefined)
- cAMP accumulation [11]: 20%

Structure (SMILES): CC(Cc1c[nH]c2ccccc12)NCC(O)c1cccc(Cl)c1 (mixture of isomers) [listing 1 of 2 here]
- EC50 [5]: 12 nM
- EC50 [9]: 23 nM
- EC50 [6]: 0.97 nM

Structure (SMILES): COc1cccc2c(CC(C)NCC(O)c3cccc(Cl)c3)c[nH]c12 (centres undefined)
- Intrinsic activity [3]: 113%

Structure (SMILES): CCOc1cccc2c(CC(C)NC[C@H](O)c3cccc(Cl)c3)c[nH]c12 (some centres undefined)
- Intrinsic activity [3]: 96%

Structure (SMILES): Cc1ccc2[nH]cc(CCNCC(O)c3cccc(Cl)c3)c2c1 (centres undefined)
- cAMP accumulation [1]: 7%

Structure (SMILES): CC(Cc1c[nH]c2c(OC(C)C)cccc12)NC[C@H](O)c1cccc(Cl)c1 (some centres undefined)
- Intrinsic activity [3]: 87%
- EC50 [5]: 2.8 nM

Structure (SMILES): COc1cccc2c(C[C@@H](C)NC[C@H](O)c3cccc(Cl)c3)c[nH]c12
- Intrinsic activity [8]: 46%
- Intrinsic activity [3]: 89%
- EC50 [5]: 0.36 nM
- EC50 [9]: 5.2 nM
- EC50 [6]: 0.15 nM
- Intrinsic activity [7]: 147%

Structure (SMILES): CC(Cc1c[nH]c2ccccc12)NCC(O)c1cccc(Cl)c1 (centres undefined) [listing 2 of 2 here]
- Intrinsic activity [12]: 114%

Structure (SMILES): C[C@@H](Cc1c[nH]c2ccccc12)NC[C@@H](O)c1cccc(Cl)c1
- Intrinsic activity [3]: 62%
- EC50 [4]: 140 nM
- EC50 [5]: 3300 nM
- EC50 [6]: 33 nM
- Intrinsic activity [7]: 108%

Structure (SMILES): C[C@@H](Cc1c[nH]c2c(OCC(=O)O)cccc12)NC[C@H](O)c1cccc(Cl)c1
- Intrinsic activity [3]: 84%
- EC50 [4]: 14 nM
- EC50 [5]: 10 nM
- EC50 [6]: 1.2 nM
- Intrinsic activity [7]: 106%

Structure (SMILES): CCCOc1cccc2c(CC(C)NC[C@H](O)c3cccc(Cl)c3)c[nH]c12 (some centres undefined)
- Intrinsic activity [3]: 103%
- EC50 [5]: 14 nM

Structure (SMILES): CC(Cc1c[nH]c2c(OCc3ccccc3)cccc12)NC[C@H](O)c1cccc(Cl)c1 (some centres undefined)
- Intrinsic activity [3]: 114%
- EC50 [5]: 11 nM

Structure (SMILES): CC(Cc1c[nH]c2ccccc12)NCC(O)c1cccc(Cl)c1 (mixture of isomers) [listing 2 of 2 here]
- Intrinsic activity [8]: 46%
- Intrinsic activity [3]: 114%
- Intrinsic activity [7]: 107%

Structure (SMILES): OC(CNC1CCc2[nH]c3ccccc3c2C1)c1cccc(Cl)c1 (centres undefined)
- cAMP accumulation [1]: 0%

Structure (SMILES): Cc1ccc2c(CC(C)NCC(O)c3cccc(Cl)c3)c[nH]c2c1 (centres undefined)
- Intrinsic activity [3]: 95%

Structure (SMILES): C[C@H](Cc1ccc(OCC(=O)O)cc1)NC[C@H](O)c1cccc(Cl)c1
- Intrinsic activity [8]: 31%

Structure (SMILES): CC(Cc1c[nH]c2c(O)cccc12)NC[C@H](O)c1cccc(Cl)c1 (some centres undefined)
- Intrinsic activity [3]: 128%
- EC50 [5]: 1.7 nM

Structure (SMILES): CC(Cc1c[nH]c2cc(Cl)ccc12)NCC(O)c1cccc(Cl)c1 (centres undefined)
- Intrinsic activity [3]: 131%
- EC50 [5]: 28 nM

Structure (SMILES): COc1cccc2c(C[C@H](C)NC[C@H](O)c3cccc(Cl)c3)c[nH]c12
- Intrinsic activity [3]: 51%
- EC50 [5]: 120 nM
- EC50 [6]: 6.5 nM
- Intrinsic activity [7]: 121%

Structure (SMILES): Cc1[nH]c2ccccc2c1CCNCC(O)c1cccc(Cl)c1 (centres undefined)
- cAMP accumulation [1]: 5%

Structure (SMILES): Cc1cccc2[nH]cc(CCNCC(O)c3cccc(Cl)c3)c12 (centres undefined)
- cAMP accumulation [1]: 20%

Structure (SMILES): COC(=O)COc1cccc2c(CC(C)NC[C@H](O)c3cccc(Cl)c3)c[nH]c12 (some centres undefined)
- Intrinsic activity [3]: 102%
- EC50 [5]: 0.92 nM

Structure (SMILES): C[C@H](Cc1c[nH]c2c(OCC(=O)O)cccc12)NC[C@H](O)c1cccc(Cl)c1 [RAFABEGRON]
- Intrinsic activity [8]: 26%
- Intrinsic activity [3]: 116%
- EC50 [4]: 6.4 nM
- EC50 [5]: 0.062 nM
- EC50 [9]: 13 nM
- EC50 [6]: 0.016 nM
- Intrinsic activity [7]: 110%

Structure (SMILES): CC(Cc1c[nH]c2cc(Br)ccc12)NCC(O)c1cccc(Cl)c1 (centres undefined)
- Intrinsic activity [3]: 98%
- EC50 [5]: 38 nM

Structure (SMILES): OC(CNCCc1c[nH]c2ccccc12)c1cccc(Cl)c1 (centres undefined)
- Intrinsic activity [13]: 99%
- EC50 [2]: 69 nM
